Read-outs that look alike come from different tables or passages of the source.
Columns and labels:
[1] = target: Full length wild-type cereblon CRBN (Homo sapiens (Human), UniProt Q96SW2); experiment: fluorescence polarization (FP) assay, cereblon binding
Text: Compound activity was monitored in a fluorescence polarization (FP) homogeneous assay using 1-[5-({2-[2-(2-{[2-(2,6-dioxopiperidin-3-yl)-1,3-dioxo-2,3-dihydro-1H-isoindol-4-yl]oxy}acetamido)ethoxy]ethyl}carbamoyl)pentyl]-3,3-dimethyl-2-[(1E,3E)-5-[(2E)-1,3,3-trimethyl-5-sulfo-2,3-dihydro-1H-indol-2-ylidene]penta-1,3-dien-1-yl]-3H-indol-1-ium-5-sulfonate as a fluorescent probe. Unless otherwise stated, all reagents were purchased from Sigma Aldrich. […] Full length wild-type cereblon CRBN (80.0 nM, 10 μL) was incubated in assay buffer containing 20 mM HEPES (pH 8.0), […], 0.5 mM TCEP and 0.05% Tween 20 in the presence or absence of compound (300 nL). Inhibitors were stored as 10 mM DMSO stocks in an inert environment (low humidity, dark, low oxygen, room temperature) using the Storage Pod System. […] Following incubation at room temperature for 30 min, the assay was initiated by dispensing the probe to a final concentration of 5 nM (2.5 nL of a 20 μM stock) using the Echo ESXX. […] The FP signal was subsequently normalized to the no-compound control (i.e., DMSO). Analysis and IC50 values were derived using Dotmatics (Dotmatics UK) software.

[2] = target: GSPT1 (Homo sapiens (Human), UniProt P15170+Q96SW2); experiment: immunofluorescence assay for GSPT1 degradation in CAL-51 cells (Example 4); assay type: cell-based
Protocol: The representative compounds were tested in an immunofluorescence assay for their activity to bind to degrade GSPT1. CAL-51 cells were purchased from DSMZ (cat. Number ACC302), sub-cultured in 90% Dulbecco's MEM (4.5 g/L glucose, Gibco 11965) +10% heat inactivated FBS (BioConcept, 2-01F136I) and incubated at 37° C., 5% CO2. For the assay, imaging microtiterplate Cell Carrier 96 Ultra (Perkin Elmer 6055302) were pre-coated with Fibronectin (Sigma F085, 30 μl at 0.2 μg/ml) in PBS (100 μl, Gibco 14190) for 45 min at room temperature, rinsed with PBS and CAL-51 cells (30 K cells/well) were plated and let to adhere overnight. Cells were treated with compounds typically using a serial dilution ranging from 30 μM to 0.1 nM for 6 hours. Compounds were stored at 10 mM DMSO stocks. Vehicle (DMSO), positive (CC-885, 10 μM) and rescue controls (positive control plus 0.2 μM bortezomib) were also included atthis stage. Cells were subsequently rinsed with PBS and fixed in 10% Formalin solution (50 μl, Sigma HT5011)) for 20 mins at room temperature. Following three consecutive PBS washes (100 μl), cells were permeabilized in 0.1% Triton X-100 in PBS (Sigma 93443, 50 μl) for 15 mins at room temperature. Following three further PBS washes, 50 μl blocking buffer (1% BSA, Sigma A4503, in PBS) was added for 45 min for signal-to-noise reduction.
Primary antibody (human GSPT1, Sigma HPA052488) was diluted in blocking buffer (dil.1/300, 35 μl/well) and incubated with the cells overnight at 4° C. After three PBS washes, Alexa-fluor 488 coupled secondary antibodies (Invitrogen, A32731, dil.1/1000), Alexa-fluor 647-Phalloidin (Invitrogen, A22287, dil.1/200) and DAPI (Thermo, #62248, dil.1/1000) were diluted in blocking buffer and incubated with the samples for 2 hours at room temperature. After three final PBS washes, samples were conserved in 100 μl PBS in the dark, until measurement. Image acquisition was performed on the Operetta High-Content Imager (Perkin-Elmer). Fluorescence intensity of Alexa-Fluor 488 (GSPT1), Alexa-Fluor 647 (Actin) and DAPI (Nucleus) were measured. For the determination of GSPT1 DC50 values, a custom algorithm implemented in the PerkinElmer image analysis software Harmony-Acapella® was developed. After user-defined setting of adjustment parameters, the analysis was run identically without human intervention for all image fields. DAPI staining of the nuclei was used to determine the location of cells using standard nuclei detection modules. Segmentation artifacts were removed by threshold-based filters for area, roundness and intensity. The outline of the cells was determined analogously from the sum of the normalized, smoothed DAPI and Actin channel, starting from each nucleus. The Alexa-Fluor 488 (GSPT1) signal intensity in each cell was finally measured, in order to obtain a Mean intensity per cell. GSPT1 degradation (DC50) was calculated after normalization to controls and data import in CDD vault Database, using non-linear regression.

[3] = 6 hours, read-out: Activity for GSPT1 degradation, Code (DC50)
[4] = GSPT1 degradation, read-out: DC50 value

Chain of GSPT1 (P15170 whole entry): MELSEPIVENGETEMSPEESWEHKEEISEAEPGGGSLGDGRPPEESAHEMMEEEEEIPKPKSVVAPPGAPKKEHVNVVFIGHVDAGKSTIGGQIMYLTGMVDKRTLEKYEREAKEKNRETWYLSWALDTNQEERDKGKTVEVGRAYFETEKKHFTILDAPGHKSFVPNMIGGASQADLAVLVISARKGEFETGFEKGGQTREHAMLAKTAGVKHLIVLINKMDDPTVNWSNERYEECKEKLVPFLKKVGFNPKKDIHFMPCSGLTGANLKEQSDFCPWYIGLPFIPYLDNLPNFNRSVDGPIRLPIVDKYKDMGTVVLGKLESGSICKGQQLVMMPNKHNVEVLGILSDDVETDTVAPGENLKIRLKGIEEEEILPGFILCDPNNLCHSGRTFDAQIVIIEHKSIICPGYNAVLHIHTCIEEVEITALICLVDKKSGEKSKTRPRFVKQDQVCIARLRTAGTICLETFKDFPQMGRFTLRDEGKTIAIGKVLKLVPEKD
Chain of GSPT1 (Q96SW2 whole entry): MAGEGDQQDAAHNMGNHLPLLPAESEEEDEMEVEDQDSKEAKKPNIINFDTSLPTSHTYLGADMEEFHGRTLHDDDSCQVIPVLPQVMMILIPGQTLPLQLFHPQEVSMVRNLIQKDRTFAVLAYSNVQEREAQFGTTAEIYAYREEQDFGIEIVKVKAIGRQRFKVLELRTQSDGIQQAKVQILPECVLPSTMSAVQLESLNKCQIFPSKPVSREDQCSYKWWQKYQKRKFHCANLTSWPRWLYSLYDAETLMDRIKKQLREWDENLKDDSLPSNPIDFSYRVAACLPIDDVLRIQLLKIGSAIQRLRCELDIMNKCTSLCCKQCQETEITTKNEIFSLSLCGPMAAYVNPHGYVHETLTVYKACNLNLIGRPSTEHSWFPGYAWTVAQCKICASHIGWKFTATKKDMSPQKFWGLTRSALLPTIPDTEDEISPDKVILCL
Chain of GSPT1 (Q16531 2-1140 partner): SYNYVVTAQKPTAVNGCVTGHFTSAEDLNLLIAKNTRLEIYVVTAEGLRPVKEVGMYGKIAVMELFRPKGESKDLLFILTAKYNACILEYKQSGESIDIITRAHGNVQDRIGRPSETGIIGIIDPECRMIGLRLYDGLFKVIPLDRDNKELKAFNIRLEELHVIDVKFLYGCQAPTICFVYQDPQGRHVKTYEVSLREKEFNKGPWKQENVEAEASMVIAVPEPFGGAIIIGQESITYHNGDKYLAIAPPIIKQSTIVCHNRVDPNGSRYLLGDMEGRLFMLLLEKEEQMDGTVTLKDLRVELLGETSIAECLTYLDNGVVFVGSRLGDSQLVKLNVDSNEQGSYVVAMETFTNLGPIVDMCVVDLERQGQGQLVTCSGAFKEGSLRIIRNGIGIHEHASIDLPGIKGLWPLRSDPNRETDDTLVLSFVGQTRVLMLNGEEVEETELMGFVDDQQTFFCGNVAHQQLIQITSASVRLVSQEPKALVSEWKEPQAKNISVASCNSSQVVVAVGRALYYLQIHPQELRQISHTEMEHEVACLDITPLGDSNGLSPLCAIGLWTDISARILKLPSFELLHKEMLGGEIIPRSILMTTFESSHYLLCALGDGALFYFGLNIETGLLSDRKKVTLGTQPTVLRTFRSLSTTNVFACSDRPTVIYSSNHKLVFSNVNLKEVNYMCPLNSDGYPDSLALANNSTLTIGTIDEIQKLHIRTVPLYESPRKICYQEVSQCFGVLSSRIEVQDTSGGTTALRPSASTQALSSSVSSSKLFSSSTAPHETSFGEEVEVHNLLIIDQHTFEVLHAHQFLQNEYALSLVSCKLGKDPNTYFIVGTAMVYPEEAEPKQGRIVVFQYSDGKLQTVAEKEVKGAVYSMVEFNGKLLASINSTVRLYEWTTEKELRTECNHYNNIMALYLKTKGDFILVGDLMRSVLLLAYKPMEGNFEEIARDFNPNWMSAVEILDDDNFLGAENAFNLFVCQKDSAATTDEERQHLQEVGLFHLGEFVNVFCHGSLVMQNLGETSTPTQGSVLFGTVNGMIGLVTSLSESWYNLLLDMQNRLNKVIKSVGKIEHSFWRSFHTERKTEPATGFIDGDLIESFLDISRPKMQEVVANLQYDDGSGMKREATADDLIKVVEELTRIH
Chain of Full length wild-type cereblon CRBN (Q96SW2 whole entry): as the sequence (Q96SW2 whole entry) above

| IC50 ([1]; read-out: rFP IC50) [nM] | DC50 [2, 3] [nM] | IC50 ([1]; read-out: IC50 value) [nM] | DC50 [2, 4] [nM] | SMILES | IC50 ([1]; IC50 value) [nM] | DC50 ([2]; read-out: Activity for GSPT1 degradation, Code (DC50), 6 hours) [nM] |
| --- | --- | --- | --- | --- | --- | --- |
| > 1700 | 30 to 300 |  |  | O=C1CCC(N2Cc3ccc(COC(=O)Nc4ccc(-c5ccccc5)c(F)c4)cc3C2=O)C(=O)N1 (stereo not drawn) [Compound 136, (2-(2,6-dioxopiperidin-3-yl)-3-oxoisoindolin-5-yl)methyl (2-fluoro-[1,1′-biphenyl]-4-yl) carbamate] |  |  |
| < 500 | 30 to 300 |  |  | O=C1CCC(N2Cc3ccc(COC(=O)Nc4ccc(C5COC5)cc4)cc3C2=O)C(=O)N1 (stereo not drawn) [Compound 81] |  |  |
| > 1700 | 30 to 300 |  |  | O=C1CCC(N2Cc3ccc(COC(=O)Nc4ccc(-c5ccccc5)cn4)cc3C2=O)C(=O)N1 (stereo not drawn) [Compound 143, (2-(2,6-dioxopiperidin-3-yl)-3-oxoisoindolin-5-yl)methyl (5-phenylpyridin-2-yl)carbamate] |  |  |
| > 1700 | 30 to 300 |  |  | O=C1CCC(N2Cc3ccc(COC(=O)Nc4cc(-c5ccccc5)ccn4)cc3C2=O)C(=O)N1 (stereo not drawn) [Compound 155, (2-(2,6-dioxopiperidin-3-yl)-3-oxoisoindolin-5-yl)methyl (4-phenylpyridin-2-yl)carbamate] |  |  |
|  | < 30 | < 1100 | ≤ 30 | Cc1cc(C)cc(NC(=O)OCc2ccc3c(c2)C(=O)N(C2CCC(=O)NC2=O)C3)c1 (stereo not drawn) [Compound 8] |  |  |
|  | < 30 | < 1100 | ≤ 30 | CC1(C)COc2cc(NC(=O)OCc3ccc4c(c3)C(=O)N(C3CCC(=O)NC3=O)C4)ccc21 (stereo not drawn) [Compound 83] |  |  |
|  | < 30 | < 1100 | ≤ 30 | Cc1ncc(NC(=O)OCc2ccc3c(c2)C(=O)N(C2CCC(=O)NC2=O)C3)cc1OC(F)(F)F (stereo not drawn) [Compound 91] |  |  |
|  | 30 to 300 | < 1100 |  | O=C1CCC(N2Cc3ccc(COC(=O)Nc4cnc(N5CCCCC5)c(F)c4)cc3C2=O)C(=O)N1 (stereo not drawn) [Compound 72] |  |  |
|  | 30 to 300 | < 1100 |  | CC1COc2cc(NC(=O)OCc3ccc4c(c3)C(=O)N(C3CCC(=O)NC3=O)C4)ccc21 (stereo not drawn) [Compound 103] |  |  |
|  | < 30 | < 1100 | ≤ 30 | O=C1CCC(N2Cc3ccc(COC(=O)Nc4ccc(C5CC5)cc4)cc3C2=O)C(=O)N1 (stereo not drawn) [Compound 39] |  |  |
| < 500 | < 30 |  | ≤ 30 | CC1CCN(c2ccc(NC(=O)OCc3ccc4c(c3)C(=O)N(C3CCC(=O)NC3=O)C4)cn2)C1 (stereo not drawn) [Compound 69] |  |  |
| > 1700 | < 30 |  | ≤ 30 | O=C1CCC(N2Cc3ccc(COC(=O)Nc4ccc(-c5ccccn5)cc4)cc3C2=O)C(=O)N1 (stereo not drawn) [Compound 50] |  |  |
| > 1700 | < 30 |  | ≤ 30 | O=C1CCC(N2Cc3ccc(COC(=O)Nc4ccc(F)c(OC(F)(F)F)c4)cc3C2=O)C(=O)N1 (stereo not drawn) [Compound 61] |  |  |
|  | < 30 | < 1100 | ≤ 30 | CC1CCCCN1c1ccc(NC(=O)OCc2ccc3c(c2)C(=O)N(C2CCC(=O)NC2=O)C3)cn1 (stereo not drawn) [Compound 77] |  |  |
|  | < 30 | < 1100 | ≤ 30 | CCc1cc(NC(=O)OCc2ccc3c(c2)C(=O)N(C2CCC(=O)NC2=O)C3)cnc1C (stereo not drawn) [Compound 55] |  |  |
|  | 30 to 300 | < 1100 |  | O=C1CCC(N2Cc3ccc(COC(=O)Nc4cccc(OC5CC5)c4)cc3C2=O)C(=O)N1 (stereo not drawn) [Compound 93] |  |  |
| > 1700 | < 30 |  | ≤ 30 | O=C1CCC(N2Cc3ccc(COC(=O)Nc4cnc(-c5ccccc5)c(F)c4)cc3C2=O)C(=O)N1 (stereo not drawn) [Compound 85] |  |  |

The remaining lines, values behind:

| SMILES | IC50 ([1]; read-out: rFP IC50) [nM] | DC50 [2, 3] [nM] | IC50 ([1]; read-out: IC50 value) [nM] | DC50 [2, 4] [nM] | IC50 ([1]; IC50 value) [nM] | DC50 ([2]; read-out: Activity for GSPT1 degradation, Code (DC50), 6 hours) [nM] |
| --- | --- | --- | --- | --- | --- | --- |
| O=C1CCC(N2Cc3ccc(COC(=O)Nc4ccnc(-c5ccccc5)c4)cc3C2=O)C(=O)N1 (stereo not drawn) [Compound 149] | < 500 | > 300 |  |  |  |  |
| O=C1CCC(N2Cc3ccc(COC(=O)Nc4cc(F)c(-c5ccccc5)c(F)c4)cc3C2=O)C(=O)N1 (stereo not drawn) [Compound 134, (2-(2,6-dioxopiperidin-3-yl)-3-oxoisoindolin-5-yl)methyl(2,6-difluoro-[1,1′-biphenyl]-4-yl)carbamate] | > 1700 | 30 to 300 |  |  |  |  |
| Cc1c(Cl)cc(NC(=O)OCc2ccc3c(c2)C(=O)N(C2CCC(=O)NC2=O)C3)cc1OC1CCN(C)C1 (stereo not drawn) [Compound 68] |  | < 30 | < 1100 | ≤ 30 |  |  |
| O=C1CCC(N2Cc3ccc(COC(=O)Nc4cc(OC(F)(F)F)ccn4)cc3C2=O)C(=O)N1 (stereo not drawn) [Compound 59] | < 500 | 30 to 300 |  |  |  |  |
| CN1CCC(Oc2cc(Cl)cc(NC(=O)OCc3ccc4c(c3)C(=O)N(C3CCC(=O)NC3=O)C4)c2)C1 (stereo not drawn) [Compound 46] | < 500 | < 30 |  | ≤ 30 |  |  |
| O=C1CCC(N2Cc3ccc(COC(=O)Nc4ccc(N5CC6CCC(C5)O6)nc4)cc3C2=O)C(=O)N1 (stereo not drawn) [Compound 65] | < 500 | > 300 |  |  |  |  |
| Cc1ccc(NC(=O)OC(C)c2ccc3c(c2)C(=O)N(C2CCC(=O)NC2=O)C3)cc1Cl (stereo not drawn) [Compound 17] | > 1700 | > 300 |  |  |  |  |
| O=C1CCC(N2Cc3ccc(COC(=O)Nc4cc(OCCN5CCOCC5)cc(OC(F)(F)F)c4)cc3C2=O)C(=O)N1 (stereo not drawn) [Compound 106] |  | 30 to 300 | < 1100 |  |  |  |
| O=C1CCC(N2Cc3ccc(COC(=O)N4CCCCC4)cc3C2=O)C(=O)N1 (stereo not drawn) [Compound 23] | < 500 | > 300 |  |  |  |  |
| Cc1ccc(NC(=O)OCc2ccc3c(c2)C(=O)N(C2CCC(=O)NC2=O)C3)cc1C#N (stereo not drawn) [Compound 110, (2-(2,6-dioxopiperidin-3-yl)-3-oxoisoindolin-5-yl)methyl(3-cyano-4-methylphenyl)carbamate] | < 500 |  | < 500 | ≤ 30 | < 1100 | < 30 |
| O=C1CCC(N2Cc3ccc(COC(=O)N4CCN(c5ccccc5)CC4)cc3C2=O)C(=O)N1 (stereo not drawn) [Compound 36] | < 500 | > 300 |  |  |  |  |
| CC(C)(C)c1cc(NC(=O)OCc2ccc3c(c2)C(=O)N(C2CCC(=O)NC2=O)C3)ccn1 (stereo not drawn) [Compound 114] | < 500 | < 30 |  |  |  |  |
| O=C1CCC(N2Cc3ccc(COC(=O)NC4CCN(c5ccccn5)CC4)cc3C2=O)C(=O)N1 (stereo not drawn) [Compound 35] | < 500 | > 300 |  |  |  |  |

— US11912682B2, “Isoindolinone compounds” (Monte Rosa Therapeutics, Inc., priority 2021, dated 2024)
